According to ChEMBL document CHEMBL3877297, “Chemical exploration of 4-(4-fluorobenzyl)piperidine fragment for the development of new tyrosinase inhibitors” (Eur J Med Chem, 2017):
Calls of active or inactive are those of the source. The rule behind the calls is not given here.

Key:
Mushroom tyrosinase [1] = target: T1, Mushroom tyrosinase (Agaricus bisporus, UniProt O42713+Q00024+C7FF04+C7FF05); assay: Inhibition of mushroom tyrosinase monophenolase activity using L-tyrosine as substrate measured after 30 mins
[2] = target: T2, Mushroom tyrosinase (Agaricus bisporus) (UniProt O42713+Q00024+C7FF04+C7FF05); assay: Potency index, ratio of 3-(4-benzylpiperidin-1-yl)-1-(1H-indol-3-yl)propan-1-one IC50 to compound IC50 for mushroom tyrosinase monophenolase activity
Mushroom tyrosinase [3] = target: T1, Mushroom tyrosinase; assay: Inhibition of mushroom tyrosinase diphenolase activity using L-DOPA as substrate measured after 5 mins
[4] = target: T2, Mushroom tyrosinase (Agaricus bisporus); assay: Non-competitive inhibition of mushroom tyrosinase diphenolase activity at 25 to 100 uM using varying levels of L-DOPA as substrate by Lineweaver-Burk plot analysis
[5] = target: T2, Mushroom tyrosinase (Agaricus bisporus); assay: Non-competitive inhibition of mushroom tyrosinase diphenolase activity at 4 to 16 uM using varying levels of L-DOPA as substrate by Lineweaver-Burk plot analysis
[6] = target: T2, Mushroom tyrosinase (Agaricus bisporus); assay: Potency index, ratio of 3-(4-benzylpiperidin-1-yl)-1-(1H-indol-3-yl)propan-1-one IC50 to compound IC50 for mushroom tyrosinase diphenolase activity
[7] = target: T2, Mushroom tyrosinase (Agaricus bisporus); assay: Mixed-type inhibition of mushroom tyrosinase diphenolase activity at 4 to 16 uM using varying levels of L-DOPA as substrate by Lineweaver-Burk plot analysis
Mushroom tyrosinase [8] = target: T1, Mushroom tyrosinase; assay: Inhibition of mushroom tyrosinase assessed as reduction in formation of dopachrome using L-DOPA as substrate

COc1ccc2[nH]cc(C(=O)CCN3CCC(Cc4ccccc4)CC3)c2c1
IC50 (Mushroom tyrosinase [1]): 25.78 µM | Ratio IC50 [2]: 7 | IC50 (Mushroom tyrosinase [3]): 197.45 µM

O=C(CCN1CCC(Cc2ccc(F)cc2)CC1)NCc1ccccc1
IC50 (Mushroom tyrosinase [1]): 13.98 µM | IC50 (Mushroom tyrosinase [3]): 83 µM

O=C(CCN1CCC(Cc2ccc(F)cc2)CC1)n1cnc2ccccc21
IC50 (Mushroom tyrosinase [1]): 113.34 µM | IC50 (Mushroom tyrosinase [3]): 159.24 µM

O=C(CCN1CCC(Cc2ccc(F)cc2)CC1)Nc1ccccc1
IC50 (Mushroom tyrosinase [1]): 28.85 µM | inhibition [4]: Active | IC50 (Mushroom tyrosinase [3]): 27.9 µM

O=C(CCN1CCC(Cc2ccc(F)cc2)CC1)c1c[nH]c2ccccc12
IC50 (Mushroom tyrosinase [1]): 9.45 µM | inhibition [5]: Active | Ratio IC50 [6]: < 35 | IC50 (Mushroom tyrosinase [3]): 8.82 µM

COc1cc2[nH]cc(C(=O)CCN3CCC(Cc4ccc(F)cc4)CC3)c2cc1OC
IC50 (Mushroom tyrosinase [1]): 5.11 µM | Ratio IC50 [6]: < 35 | inhibition [7]: Active | IC50 (Mushroom tyrosinase [3]): 7.56 µM

CCN1CCC(Cc2ccc(F)cc2)CC1
IC50 (Mushroom tyrosinase [1]): 32.17 µM | IC50 (Mushroom tyrosinase [3]): 116 µM

COc1ccc2[nH]cc(C(=O)CCN3CCC(Cc4ccc(F)cc4)CC3)c2c1
IC50 (Mushroom tyrosinase [1]): 7.86 µM | inhibition [5]: Active | Ratio IC50 [6]: < 35 | IC50 (Mushroom tyrosinase [3]): 14.15 µM

COc1ccc2c(C(=O)CCN3CCC(Cc4ccc(F)cc4)CC3)c[nH]c2c1
IC50 (Mushroom tyrosinase [1]): 9.4 µM | inhibition [5]: Active | Ratio IC50 [6]: < 35 | IC50 (Mushroom tyrosinase [3]): 18.03 µM

COc1cccc2c1c(C(=O)/C=C(\O)C(=O)O)cn2Cc1ccc(F)cc1
IC50 (Mushroom tyrosinase [8]): 224 µM

COc1cc2[nH]cc(C(=O)CCN3CCC(Cc4ccccc4)CC3)c2cc1OC
IC50 (Mushroom tyrosinase [1]): 57.24 µM | IC50 (Mushroom tyrosinase [3]): 133 µM

COc1cccc2c1c(C(=O)C(=O)Nc1cn[nH]n1)cn2Cc1ccc(F)cc1
IC50 (Mushroom tyrosinase [8]): 372 µM

O=C(CCN1CCC(Cc2ccc(F)cc2)CC1)Nc1cc[nH]n1
IC50 (Mushroom tyrosinase [1]): 5.87 µM | IC50 (Mushroom tyrosinase [3]): 39.58 µM

O=C(CCN1CCC(Cc2ccccc2)CC1)c1c[nH]c2ccccc12
IC50 (Mushroom tyrosinase [1]): 175 µM | IC50 (Mushroom tyrosinase [3]): 252 µM

Cc1cc(NC(=O)CCN2CCC(Cc3ccc(F)cc3)CC2)on1
IC50 (Mushroom tyrosinase [1]): 28.55 µM | IC50 (Mushroom tyrosinase [3]): 110.95 µM

COc1ccc2c(C(=O)CCN3CCC(Cc4ccccc4)CC3)c[nH]c2c1
IC50 (Mushroom tyrosinase [1]): 67.25 µM | IC50 (Mushroom tyrosinase [3]): 168.55 µM
